The source of these data is ChEMBL document CHEMBL1201862, “PubChem BioAssay data set” (2004).

Experiment in all cases: growth of human tumour cells (NCI), 48 h
The subject of test [1] is CAKI-1.
Test [2] has as its system EKVX.
Test [3] concerns HCT-116.
The test system of test [4] is HCT-15.
For test [5], the system named is Hs-578T.
For test [6], the system named is LOX IMVI.
In test [7] the test system is MOLT-4.
Test [8] concerns NCI-H522.
Test [9] relates to OVCAR-8.
The test system of test [10] is SF-268.
In test [11] the test system is SF-539.
The test system of test [12] is SK-MEL-28.
In test [13] the test system is SK-OV-3.
Test [14] relates to SN12C.
The subject of test [15] is SW-620.
For test [16], the system named is U-251.
The subject of test [17] is UO-31.
Test [18] has as its system HOP-62.
Test [19] has as its system MDA-N.

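Growth conditions: 96-well plates. Treatment: test compound, 48 hours, 5 concentrations. Analysis: linear interpolation between bracketing concentrations; unreached endpoints set to highest concentration. GI50: concentration for 50% inhibition of growth.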 Activity calls are given as the source filed them. No stated cut-off is given here; in the data, active = GI50 up to about 1.1 µM and inactive = higher.

Take `COc1cc2c(cc1OCCCOS(C)(=O)=O)N=C[C@@H]1CCCN1C2=O`: the GI50 in test [1] was > 100 µM (inactive); in [2] it was > 100 µM (inactive); in test [3], > 100 µM (inactive); in [4] it was more than 100 µM; in [5], > 100 µM (inactive); in [6], > 100 µM (inactive). The GI50 in test [7], in [8], in test [9], in test [10], in [11] and in [12] was > 100 µM (inactive) in each case. The GI50 in [13], in [14], in [15], in test [16] and in [17] was > 100 µM (inactive) throughout.

For the compound `CCOC(=O)c1c(SC(=O)/C=C/c2ccccc2)n(-c2ccccc2)c(=S)n(-c2ccccc2)c1=O`, the GI50 in test [1] was > 100 µM (inactive); in test [2], > 100 µM (inactive); in test [3], > 100 µM (inactive); in test [4], more than 100 µM; in [18] it was > 100 µM (inactive); in test [5], > 100 µM (inactive). For the same compound, the GI50 in [6], in [7], in test [8], in test [9], in test [10] and in test [11] was > 100 µM (inactive) throughout. Besides, the GI50 in [12], in test [13], in [14], in test [15] and in test [16] was > 100 µM (inactive) in each case.

For the compound `BrCCCCCOc1ccc(-c2c3ccccc3c(-c3ccc(OCCCCCBr)cc3)c3ccccc23)cc1`, the GI50 in test [1] was > 100 µM (inactive); in test [2], > 100 µM (inactive); in [3] it was > 100 µM (inactive); in test [4], more than 100 µM; in test [18] it was > 100 µM (inactive); in test [5], 35.7 µM (inactive). Moreover, the GI50 in test [19], in test [7], in test [9], in [10], in test [11] and in [12] was > 100 µM (inactive) in each case. In addition, the GI50 in [13], in test [14], in test [15], in test [16] and in test [17] was > 100 µM (inactive) throughout.

For `N#Cc1c(O)c2ccccc2[nH]c1=O`, the GI50 was > 100 µM (inactive) in test [1]; > 100 µM (inactive) in test [2]; > 100 µM (inactive) in test [3]; more than 100 µM in test [4]; > 100 µM (inactive) in test [18]; > 100 µM (inactive) in test [6]. For the same compound, the GI50 in test [19], in test [7], in test [8], in test [9], in test [11] and in [12] was > 100 µM (inactive) throughout. Also, the GI50 in [13], in [14], in test [15], in [16] and in test [17] was > 100 µM (inactive) throughout.

On to `COC1(OC)N=C(N)C2(C#N)C3(C(=O)N(C(C)C)N=C3C)C12C#N` (centres undefined), for which the GI50 in [1] was > 100 µM (inactive); in test [2], > 100 µM (inactive); in [3], > 100 µM (inactive); in [4], more than 100 µM; in [18] it was > 100 µM (inactive); in [19] it was > 100 µM (inactive). The GI50 in test [7], in test [8], in [9], in [10], in [11] and in test [12] was > 100 µM (inactive) throughout. In addition, the GI50 in test [13], in test [14], in test [15], in [16] and in test [17] was > 100 µM (inactive) in each case.

For the compound `Cc1ccc(/N=N/C(=O)NNc2ccc(C)c([N+](=O)[O-])c2)cc1[N+](=O)[O-]`, the GI50 in [1] is 18.8 µM (inactive); in test [3], 23.7 µM (inactive); in [4], 30.1 µM; in [18], 20.8 µM (inactive); in test [6], 17.3 µM (inactive); in [19], 32.7 µM (inactive). Also, the GI50 in test [7] was 12.5 µM (inactive); in test [8] it was 20.6 µM (inactive); in [9] it was 26.2 µM (inactive); in test [10], 28.6 µM (inactive); in test [12], 26.1 µM (inactive); in [14], 31.4 µM (inactive). Also, the results for the GI50 in test [15], in test [16] and in [17] were 41 µM (inactive), 29.9 µM (inactive) and 15.2 µM (inactive), respectively.

`Cc1ccc(-c2c(C#N)c(-c3ccccc3)c(C#N)c(=O)n2NS(=O)(=O)c2ccc(C)cc2)cc1`: the GI50 in [1] was 48.4 µM (inactive); in test [2], 72.1 µM (inactive); in [3] it was 22.9 µM (inactive); in [4], 22.2 µM; in test [18] it was 50.4 µM (inactive); in test [5], > 100 µM (inactive). Besides, the GI50 in test [6] was 19.8 µM (inactive); in test [7], 12.9 µM (inactive); in test [8], 56.9 µM (inactive); in test [9] it was 52.7 µM (inactive); in test [10], > 100 µM (inactive); in test [11], 13.3 µM (inactive). Also, the GI50 was 52.2 µM (inactive) in test [12]; 79.8 µM (inactive) in [13]; 61.2 µM (inactive) in test [14]; 14.8 µM (inactive) in test [15]; 45.2 µM (inactive) in [16].

In the case of `COC(=O)C12CCC(CC1=O)C2(C)C` (centres undefined), the GI50 in test [2] is > 100 µM (inactive); in test [3], > 100 µM (inactive); in test [4], more than 100 µM; in [18], > 100 µM (inactive); in test [6], > 100 µM (inactive); in [7], > 100 µM (inactive). For the same compound, the GI50 in test [9], in test [11], in test [12], in [13], in [14] and in test [15] was > 100 µM (inactive) in each case. Also, the GI50 in [16] and in test [17] was > 100 µM (inactive) each time.

Turning to `COc1ccc2[nH]c(CCNC(=O)c3cc([N+](=O)[O-])cc([N+](=O)[O-])c3)cc2c1`, the GI50 is 26.1 µM (inactive) in test [1]; > 100 µM (inactive) in test [3]; more than 100 µM in test [4]; 12.3 µM (inactive) in test [18]; 58.9 µM (inactive) in [5]; 64.1 µM (inactive) in test [6]. In addition, the GI50 was > 100 µM (inactive) in [19]; > 100 µM (inactive) in [7]; 44.5 µM (inactive) in [9]; 25 µM (inactive) in test [10]; 29.8 µM (inactive) in test [11]; > 100 µM (inactive) in test [12]. Further, the GI50 in test [13] is 41 µM (inactive); in [14] it was 56 µM (inactive); in test [15], > 100 µM (inactive); in test [16], 14.7 µM (inactive); in test [17], > 100 µM (inactive).

For `Cc1cc(OCc2nnc3sc(NC(=O)c4ccccc4)nn23)ccc1Cl`, the GI50 in [1] was 18 µM (inactive); in [2], 31.1 µM (inactive); in test [3], 28.7 µM (inactive); in test [4] it was 38.7 µM; in [18] it was 20.1 µM (inactive); in test [5] it was 32.1 µM (inactive). Also, the GI50 is 30.1 µM (inactive) in test [6]; 55.5 µM (inactive) in test [7]; 30.6 µM (inactive) in test [8]; 20.7 µM (inactive) in [9]; 45 µM (inactive) in test [10]; > 100 µM (inactive) in [11]. For the same compound, the GI50 in test [12] is 67.5 µM (inactive); in test [13], 59.6 µM (inactive); in [14], 30.8 µM (inactive); in test [15], > 100 µM (inactive); in test [16], 33.3 µM (inactive); in test [17], 19 µM (inactive).

As to `CC(C)(C)C1CCC2c3c([nH]c4ccccc34)C3C(=O)N(c4cc(Cl)ccc4Cl)C(=O)C3C2C1` (centres undefined), the GI50 in [1] is > 100 µM (inactive); in [2] it was > 100 µM (inactive); in test [3] it was > 100 µM (inactive); in test [4] it was more than 100 µM; in test [18] it was > 100 µM (inactive); in test [5], 45.5 µM (inactive). Also, the GI50 in test [6] was 38.8 µM (inactive); in test [19], > 100 µM (inactive); in test [7], > 100 µM (inactive); in test [9] it was 52.6 µM (inactive); in test [11], > 100 µM (inactive); in test [13], > 100 µM (inactive). Also, the GI50 in test [14] was > 100 µM (inactive); in test [15], 5.85 µM (inactive); in [16] it was > 10 µM (inactive); in [17], > 100 µM (inactive).

As to `O=[N+]([O-])c1cccc([N+](=O)[O-])c1Cl`, the GI50 in test [1] is 3.18 µM (inactive); in [2] it was 20.3 µM (inactive); in test [3], 40.6 µM (inactive); in test [4], 12.1 µM; in [18] it was 23.5 µM (inactive); in [5] it was 27 µM (inactive). Moreover, the GI50 in test [6] is 1.35 µM (inactive); in test [7], 3.56 µM (inactive); in test [8], 12.6 µM (inactive); in [9], 16.4 µM (inactive); in test [10], 19.4 µM (inactive); in test [11] it was 17.9 µM (inactive). For the same compound, the GI50 in test [12] is 21.1 µM (inactive); in test [14] it was 23.4 µM (inactive); in test [15], 17 µM (inactive); in test [16], 11 µM (inactive); in test [17], 1.32 µM (inactive).
